# Assays:
# B16 mouse melanoma cells = test: MTT / CV cell viability test; type: cell-based; settings: 24 h
# Procedure: (§1) Rat glioma cell line C6 was a kind gift from Dr. Pedro Tranque (Universidad de Castilla-La Mancha, Albacete, Spain), murine melanoma B16 cell line was a kind gift from Dr. Sinisa Radulovic (Institute for Oncology and Radiology of Serbia, Belgrade, Serbia) while mouse fibrosarcoma L929 was obtained from the European Collection of Animal Cell Cultures (Salisbury, UK). Cells were grown in HEPES-buffered RPM, 1640 medium supplemented with 5% FCS, 2 mM glutamine, 0.01% sodium pyruvate, 5×10^−5 M 2-mercaptoethanol and antibiotics (culture medium) at 37° C. in a humidified atmosphere with 5% CO2. After conventional trypsinization the cells were seeded at a concentration of 10^4 cells/well in a 96-well plate, of 2×10^5 cells/well in a 6-well plate or at 3×10^4 cells/well in a 4-well chamber slide, cultivated overnight, and then exposed to the test compound.
# (§2) The cells were seeded in flat-bottom 96-well plates (10^4 cells/well) in a final volume of 200 μl of culture medium, incubated overnight, then treated with different concentrations of the test compound. After 24 h incubation, cell viability was assessed using 3-4,5-dimethylthiazol-2-yl)-2,5-diphenyltetrazolium bromide (MTT) test, based on the mitochondrial-dependent reduction of MTT to formazan, or by crystal violet (CV) staining of adherent cells, as previously described (Mijatovic et al CMLS 2004). The results are presented as % of control values obtained in untreated cultures. The rate of cell proliferation was also determined using flow cytometric analysis of cells labeled with CFSE (Kang 2005). The cells were detached, added with 1.5 μM CFSE and allowed to stand for 15 min at 37° C., then washed twice and seeded in 6-well plates at 2×10^5. The cells were treated with the compound for 24 and 48 h, trypsinized and washed twice. Finally, the cells were resuspended in PBS and analyzed by flow cytometry. Green fluorescence emission from cells illuminated with excitation light of 488 nm was measured with a FACS Calibur (BD, Heidelberg, Germany) and analyzed using the CellQuest software.
# C6 rat astrocytoma cells = test: MTT / CV cell viability test; type: cell-based; settings: 24 h
# Procedure: as §1, §2
# [1] = system: L929 mouse fibrosarcoma cells; test: MTT / CV cell viability test; type: cell-based; settings: 24 h
# Procedure: as §1, §2
# B16 cells = test: CFSE staining, tumor cell proliferation rate (flow cytometry); type: cell-based, mouse; settings: B16, GIT27-NO 25 μg/ml, after 48 h; control 2.00%
# Procedure: as §2
# L929 cells = test: as above; type: cell-based, mouse; settings: L929, GIT27-NO 25 μg/ml, after 48 h; control 7.26%
# Procedure: as §2
# C6 cells = test: Autophagy detection by acridin orange staining (flow cytometry); type: cell-based, rat; settings: C6, 25 μg/ml, 24 h
# Procedure: As a marker of necrotic cell death, the release of intracellular enzyme LDH, which mediates the conversion 2,4-dinitrophenylhydrazine into visible hydrazone precipitate in the presence of pyruvate, was measured. The cells were seeded in flat-bottom 96-well plates as indicated above and the assay was performed after 24 h incubation, as previously described (Decker et al). The percentage of dead cells was determined using the following formula: [(E−C)/(T−C)]×100, wherein E is the experimental absorbance of treated cultures measured at 492 nm, C is the absorbance of supernatants of control untreated cells, and T is the absorbance corresponding to the maximal (100%) LDH release of Triton-lysed cells. Cell cycle analysis and apoptosis detection were carried out exactly as described in the literature (Mijatovic CMLS 2005). Acidic vesicular organelles, which characterise autophagy, are stained by vital dye acridin orange. The intensity of red fluorescence is proportional to the acidity and volume of the organelles, while the cytoplasm and nucleolus emits bright green and dim red (Kanzawa 2004). […] Green (510-530 nm) and red (>650 nm) fluorescence emission from 10^4 cells illuminated with blue (488 nm) excitation light was measured with a FACS Calibur and analyzed using CellQuest software.
# [2] = system: MAP kinases (p38 MAPK, ERK, JNK) in C6 cells; test: Cell-based ELISA for activation of MAP kinases; design: species or system rat; settings: C6, 25 μg/ml, time course
# Procedure: Activation of MAP kinases (p38 MAPK, extracellular signal-regulated kinase—ERK, and Jun-N-terminal kinase—JNK) or nuclear factor-κB (NF-κB) was determined by means of a slightly modified method of cell-based ELISA by Versteeg et al. (Versteeg 2000). Since MAP kinases are activated by phosphorylation, and phosphorylation of the inhibitory subunit IκB is a necessary step for NF-κB activation, we used antibodies specific for phosphorylated forms of MAP kinases (p-p38, p-ERK and p-JNK) and IκB (p-IκB). The cells were grown overnight in 96-well flat-bottom plates in a culture medium containing 0.5% FCS and then treated with the test compound diluted in conventional culture medium. At the end of treatment period the cells were fixed in 4% parformaldehyde, endogenous peroxydase was quenched with 1% H2O2 in PBS containing 0.1% Triton X-100 (PBST), and unspecific binding of antibodies was blocked with a PBST solution containing 10% FCS. Primary mouse monoclonal antibodies specific for rat/mouse p-ERK, p-p38, p-JNK, p-IκB (1:200; all from Santa Cruz Biotechnology, Santa Cruz, Calif.) were applied in PBST supplemented with 2% bovine serum albumine (PBSTB), followed by secondary peroxidase-conjugated goat anti-mouse IgG (1:2500 in PBSTB; USB corporation, Cleveland, Ohio) for anti-p-ERK, anti-p-JNK and anti-p-IκB, or anti-mouse IgM (1:4000; USB corporation) for detection of anti-p-p38. Incubation with antibodies was carried out at 37° C. for 1 h. After 15 min incubation with peroxydase substrate TMB and subsequent addition of 0.1 M HCl, the absorbance at 450 nm was measured in an automated microplate reader. To enable comparison between treatment and control, the resulting absorbances were corrected for the cell number determined by crystal violet staining, as described in the original protocol. The results are presented as relative expression in comparison with the control value, which was arbitrarily set to 1.
compound,measurement,setting,value
"N#Cc1c(COC(=O)CC2CC(c3ccccc3)=NO2)no[n+]1[O-] (racemic) [GIT27-NO, (S,R)-3-phenyl-4,5 dihydro-5-isoxazole acetic acid-nitric oxide]",viability (MTT) of GIT27-NO treated cells in the presence of autophagic inhibitors,"B16 mouse melanoma cells; B16, GIT27-NO 25 μg/ml, 3-MA 1 mg/ml or Baf 0.5 μM",recovered
same,survival (MTT) of GIT27-NO treated cells with specific MAP kinase inhibitors,"B16 mouse melanoma cells; B16, GIT27-NO 25 μg/ml, JNK inhibitor SP600125 0.75 μM",significantly improved the survival
same,viability (MTT) of GIT27-NO treated cells with ROS scavenger NAC,"B16 mouse melanoma cells; B16, GIT27-NO 25 μg/ml, NAC 2.5 μM",restored the viability
same,viability (MTT) of GIT27-NO treated cells with PTK inhibitor tyrphostin,"B16 mouse melanoma cells; B16, GIT27-NO 25 μg/ml, tyrphostin 5 μM",almost completely restored the viability
same,"cell viability (MTT, mitochondrial respiration)","B16 mouse melanoma cells; B16 cells, different concentrations, cell number also reduced by CV",dose-dependent reduction of mitochondrial respiration
same,viability (MTT) of GIT27-NO treated cells in the presence of autophagic inhibitors,"C6 rat astrocytoma cells; C6, GIT27-NO 25 μg/ml, 3-MA 1 mg/ml or Baf 0.5 μM",recovered
same,survival (MTT) of GIT27-NO treated cells with specific MAP kinase inhibitors,"C6 rat astrocytoma cells; C6, GIT27-NO 25 μg/ml, ERK inhibitor PD98059 50 μM, JNK inhibitor SP600125 0.75 μM",significantly improved the survival
same,viability (MTT) of GIT27-NO treated cells with ROS scavenger NAC,"C6 rat astrocytoma cells; C6, GIT27-NO 25 μg/ml, NAC 2.5 μM",restored the viability
same,viability (MTT) of GIT27-NO treated cells with PTK inhibitor tyrphostin,"C6 rat astrocytoma cells; C6, GIT27-NO 25 μg/ml, tyrphostin 5 μM",almost completely restored the viability
same,viability (MTT) of GIT27-NO treated cells in parallel with NO-scavenger hemoglobin,"C6 rat astrocytoma cells; C6, hemoglobin 12.5 μM, GIT27-NO 25 mg/ml (as printed in b12)",almost completely restored
same,"cell viability (MTT, mitochondrial respiration)","C6 rat astrocytoma cells; C6 cells, different concentrations, cell number also reduced by CV",dose-dependent reduction of mitochondrial respiration
same,survival (MTT) of GIT27-NO treated cells with specific MAP kinase inhibitors,"[1]; L929, GIT27-NO 25 μg/ml, ERK inhibitor PD98059 50 μM, p38 inhibitor SB202190 20 μM",significantly improved the survival
same,viability (MTT) of GIT27-NO treated cells with ROS scavenger NAC,"[1]; L929, GIT27-NO 25 μg/ml, NAC 2.5 μM",restored the viability
same,viability (MTT) of GIT27-NO treated cells with PTK inhibitor tyrphostin,"[1]; L929, GIT27-NO 25 μg/ml, tyrphostin 5 μM",almost completely restored the viability
same,"cell viability (MTT, mitochondrial respiration)","[1]; L929 cells, different concentrations, cell number also reduced by CV",dose-dependent reduction of mitochondrial respiration
same,CFSE R1 = parent population,B16 cells,6.90%
same,CFSE R1 = parent population,L929 cells,13.23%
same,acidic autophagic vesicles (red fluorescence of acridin orange),C6 cells,significantly increased the intensity of bright red fluorescence
same,activation of ERK1/2,[2],permanent activation
same,activation of JNK,[2],permanent activation
same,activity of p38,[2],not affected

# From patent publication US8207206B2, “(S,R)-3-phenyl-4,5 dihydro-5-isoxazole acetic acid-nitric oxide and use thereof as anti-cancer and antiviral agent” (OncoNOx APS, priority 2007, dated 2012)
